Source: PubChem BioAssay AID1259407 (Chemical Carcinogenesis Research Information System (CCRIS), 2018)
Calls of active or inactive are those of the source. The rule behind the calls is not given here.

System: CCRIS mutagenicity, Ames/micronucleus/aberration tests
Experiment: CCRIS mutagenicity studies
[1] = Test System: AMES SALMONELLA TYPHIMURIUM, Strain/Indicator: TA98, Metabolic Activation: NONE, Method: PREINCUBATION
[2] = Test System: AMES SALMONELLA TYPHIMURIUM, Strain/Indicator: TA98, Metabolic Activation: NONE, Method: STANDARD PLATE
[3] = Test System: AMES SALMONELLA TYPHIMURIUM, Strain/Indicator: TA98, Metabolic Activation: RAT, LIVER, S-9, AROCLOR 1254, Method: STANDARD PLATE
[4] = Test System: AMES SALMONELLA TYPHIMURIUM, Strain/Indicator: TA100, Metabolic Activation: NONE, Method: PREINCUBATION
[5] = Test System: AMES SALMONELLA TYPHIMURIUM, Strain/Indicator: TA100, Metabolic Activation: NONE, Method: STANDARD PLATE
[6] = Test System: AMES SALMONELLA TYPHIMURIUM, Strain/Indicator: TA100, Metabolic Activation: RAT, LIVER, S-9, AROCLOR 1254, Method: STANDARD PLATE
[7] = Test System: AMES SALMONELLA TYPHIMURIUM, Strain/Indicator: TA100, Metabolic Activation: S-9, Method: STANDARD PLATE
[8] = Test System: AMES SALMONELLA TYPHIMURIUM, Strain/Indicator: TA102, Metabolic Activation: NONE, Method: STANDARD PLATE
[9] = Test System: AMES SALMONELLA TYPHIMURIUM, Strain/Indicator: TA102, Metabolic Activation: RAT, LIVER, S-9, AROCLOR 1254, Method: STANDARD PLATE
[10] = Test System: AMES SALMONELLA TYPHIMURIUM, Strain/Indicator: TA1535, Metabolic Activation: NONE, Method: STANDARD PLATE
[11] = Test System: AMES SALMONELLA TYPHIMURIUM, Strain/Indicator: TA1537, Metabolic Activation: NONE, Method: STANDARD PLATE
[12] = Test System: AMES SALMONELLA TYPHIMURIUM, Strain/Indicator: TA1535, Metabolic Activation: RAT, LIVER, S-9, AROCLOR 1254, Method: STANDARD PLATE
[13] = Test System: AMES SALMONELLA TYPHIMURIUM, Strain/Indicator: TA1537, Metabolic Activation: RAT, LIVER, S-9, AROCLOR 1254, Method: STANDARD PLATE
[14] = Test System: AMES SALMONELLA TYPHIMURIUM, Strain/Indicator: TA1538, Metabolic Activation: NONE, Method: STANDARD PLATE
[15] = Test System: AMES SALMONELLA TYPHIMURIUM, Strain/Indicator: TA1538, Metabolic Activation: RAT, LIVER, S-9, AROCLOR 1254, Method: STANDARD PLATE
[16] = Test System: E. COLI, Strain/Indicator: WP2 UVRA, Metabolic Activation: NONE, Method: STANDARD PLATE

O=NN1CCSC1CO (stereo not drawn)
mutagenic call [1]: inactive; negative | mutagenic call [2]: inactive; negative | mutagenic call (Test System: AMES SALMONELLA TYPHIMURIUM, Strain/Indicator: TA98, Metabolic Activation: RAT, LIVER, S-9, AROCLOR 1254, Method: PREINCUBATION): inactive; negative | mutagenic call [3]: inactive; negative | mutagenic call [4]: active; positive | mutagenic call [5]: active; positive | mutagenic call (Test System: AMES SALMONELLA TYPHIMURIUM, Strain/Indicator: TA100, Metabolic Activation: RAT, LIVER, S-9, AROCLOR 1254, Method: PREINCUBATION): active; positive | mutagenic call [6]: active; positive

CCC(=O)N=c1sn(C(=O)CC)c2ccc([N+](=O)[O-])cc12
mutagenic call [7]: active; positive

O=S(c1cc(Cl)cc(Cl)c1O)c1cc(Cl)cc(Cl)c1O
mutagenic call (Test System: AMES SALMONELLA TYPHIMURIUM, Strain/Indicator: TA97, Metabolic Activation: NONE, Method: STANDARD PLATE): inactive; negative | mutagenic call (Test System: AMES SALMONELLA TYPHIMURIUM, Strain/Indicator: TA97, Metabolic Activation: RAT, LIVER, S-9, AROCLOR 1254, Method: STANDARD PLATE): inactive; negative | mutagenic call [2]: active; positive | mutagenic call [3]: inactive; negative | mutagenic call [5]: active; positive | mutagenic call [6]: inactive; negative | mutagenic call [8]: inactive; negative | mutagenic call [9]: inactive; negative

CCCCC/C(C=O)=C/c1ccccc1
mutagenic call (Test System: AMES SALMONELLA TYPHIMURIUM, Strain/Indicator: TA97, Metabolic Activation: NONE, Method: PREINCUBATION): inactive; negative | mutagenic call (Test System: AMES SALMONELLA TYPHIMURIUM, Strain/Indicator: TA97, Metabolic Activation: RAT, LIVER, S-9, AROCLOR 1254, Method: PREINCUBATION): inactive; negative | mutagenic call (Test System: AMES SALMONELLA TYPHIMURIUM, Strain/Indicator: TA102, Metabolic Activation: NONE, Method: PREINCUBATION): inactive; negative | mutagenic call (Test System: AMES SALMONELLA TYPHIMURIUM, Strain/Indicator: TA102, Metabolic Activation: RAT, LIVER, S-9, AROCLOR 1254, Method: PREINCUBATION): inactive; negative

COc1ccc([Se]c2ccc(OC)cc2)cc1
mutagenic call (Test System: AMES SALMONELLA TYPHIMURIUM, Strain/Indicator: TA97A, Metabolic Activation: NONE, Method: STANDARD PLATE): inactive; negative | mutagenic call [5]: active; positive

O=[N+]([O-])c1c2ccccc2cc2c1ccc1ccccc12
mutagenic call [2]: inactive; negative | mutagenic call [5]: inactive; negative

O=[N+]([O-])c1cccc2csnc12
mutagenic call [2]: active; positive | mutagenic call [5]: active; positive | mutagenic call [7]: active; positive | mutagenic call [10]: active; positive | mutagenic call (Test System: AMES SALMONELLA TYPHIMURIUM, Strain/Indicator: TA1535, Metabolic Activation: S-9, Method: STANDARD PLATE): inactive; negative | mutagenic call [11]: active; positive | mutagenic call (Test System: AMES SALMONELLA TYPHIMURIUM, Strain/Indicator: TA1537, Metabolic Activation: S-9, Method: STANDARD PLATE): inactive; negative

CN(CCO)C(=O)Nc1ccccc1
mutagenic call [2]: inactive; negative | mutagenic call [3]: inactive; negative | mutagenic call [5]: inactive; negative | mutagenic call [6]: inactive; negative | mutagenic call [10]: inactive; negative | mutagenic call [12]: inactive; negative | mutagenic call [11]: inactive; negative | mutagenic call [13]: inactive; negative | mutagenic call [14]: inactive; negative | mutagenic call [15]: inactive; negative

CN(C)C(=O)c1nc2n(n1)-c1ccc(Cl)cc1C(c1ccccc1Cl)=NC2
mutagenic call [2]: inactive; negative | mutagenic call [3]: inactive; negative | mutagenic call [5]: inactive; negative | mutagenic call [6]: inactive; negative | mutagenic call [8]: inactive; negative | mutagenic call [9]: inactive; negative | mutagenic call [10]: inactive; negative | mutagenic call [12]: inactive; negative | mutagenic call [11]: inactive; negative | mutagenic call [13]: inactive; negative | mutagenic call [16]: inactive; negative | mutagenic call (Test System: E. COLI, Strain/Indicator: WP2 UVRA, Metabolic Activation: RAT, LIVER, S-9, AROCLOR 1254, Method: STANDARD PLATE): inactive; negative

O=[N+]([O-])c1cc([N+](=O)[O-])c2cccc3c2c1-c1ccccc1-3
mutagenic call (Test System: AMES SALMONELLA TYPHIMURIUM, Strain/Indicator: TA98(1,8-DNP6), Metabolic Activation: NONE, Method: STANDARD PLATE): active; positive | mutagenic call (Test System: AMES SALMONELLA TYPHIMURIUM, Strain/Indicator: TA98(NR), Metabolic Activation: NONE, Method: STANDARD PLATE): active; positive | mutagenic call [2]: active; positive

Oc1ccc(Cc2ccccc2O)cc1
mutagenic call [1]: inactive; negative | mutagenic call (Test System: AMES SALMONELLA TYPHIMURIUM, Strain/Indicator: TA98, Metabolic Activation: RAT LIVER S-9, PHENOBARBITAL AND BETA-NAPHTHOFLAVONE, Method: PREINCUBATION): inactive; negative | mutagenic call [4]: inactive; negative | mutagenic call (Test System: AMES SALMONELLA TYPHIMURIUM, Strain/Indicator: TA100, Metabolic Activation: RAT LIVER S-9, PHENOBARBITAL AND BETA-NAPHTHOFLAVONE, Method: PREINCUBATION): inactive; negative | mutagenic call (Test System: AMES SALMONELLA TYPHIMURIUM, Strain/Indicator: TA1535, Metabolic Activation: NONE, Method: PREINCUBATION): inactive; negative | mutagenic call (Test System: AMES SALMONELLA TYPHIMURIUM, Strain/Indicator: TA1535, Metabolic Activation: RAT LIVER S-9, PHENOBARBITAL AND BETA-NAPHTHOFLAVONE, Method: PREINCUBATION): inactive; negative | mutagenic call (Test System: AMES SALMONELLA TYPHIMURIUM, Strain/Indicator: TA1537, Metabolic Activation: NONE, Method: PREINCUBATION): inactive; negative | mutagenic call (Test System: AMES SALMONELLA TYPHIMURIUM, Strain/Indicator: TA1537, Metabolic Activation: RAT LIVER S-9, PHENOBARBITAL AND BETA-NAPHTHOFLAVONE, Method: PREINCUBATION): inactive; negative | mutagenic call (Test System: E.COLI, Strain/Indicator: WP2UVRA/PKM101, Metabolic Activation: NONE, Method: PREINCUBATION): inactive; negative | mutagenic call (Test System: E.COLI, Strain/Indicator: WP2UVRA/PKM101, Metabolic Activation: RAT LIVER S-9, PHENOBARBITAL AND BETA-NAPHTHOFLAVONE, Method: PREINCUBATION): inactive; negative

COc1cc(CCC(C)=O)ccc1O
mutagenic call [2]: inactive; negative | mutagenic call [3]: inactive; negative | mutagenic call [5]: inactive; negative | mutagenic call [6]: inactive; negative | mutagenic call [10]: inactive; negative | mutagenic call [12]: inactive; negative | mutagenic call [14]: inactive; negative | mutagenic call [15]: inactive; negative | mutagenic call (Test System: E. COLI, Strain/Indicator: CM561 LEXA, Metabolic Activation: NONE, Method: STANDARD PLATE): inactive; negative | mutagenic call (Test System: E. COLI, Strain/Indicator: CM611 UVRA/LEXA, Metabolic Activation: NONE, Method: STANDARD PLATE): inactive; negative | mutagenic call [16]: inactive; negative
